Drawing on the supplement of paper PMC10307832, this text covers relative viability for seven cell lines.

What all share (assay): relative viability (nuclei count vs DMSO), 5 days (fraction); higher = more cells survive
Compound in experiment [1]: C[C@]1(O)C[C@@H](c2nc(-c3ccc4ccc(-c5ccccc5)nc4c3)c3c(N)nccn32)C1 [Linsitinib] + Cc1cc(Nc2cc(N3CCN(C)CC3)nc(Sc3ccc(NC(=O)C4CC4)cc3)n2)n[nH]1 [Tozasertib] (partner 0.1 µM)
The method, boiled down: (§1)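 Relative viability was taken as the ratio of nuclei in treated wells to nuclei in vehicle wells. Lung cancer cell lines in 1536-well plates received compounds by pin tool one day after seeding, either one drug alone or a fixed anchor-drug dose plus five library-drug doses (not always all listed) in √10 steps. Nuclei were counted on 4× images after 5 days of treatment, and values are medians of duplicate plates.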

Compound in experiment [2]: Cc1ccc(C(=O)N(CCCN)[C@@H](c2nc3cc(Cl)ccc3c(=O)n2Cc2ccccc2)C(C)C)cc1 [Ispinesib] + NC(=O)Nc1cc(-c2cccc(F)c2)sc1C(=O)N[C@H]1CCCNC1 [AZD7762] (partner 0.2 µM)
The method, boiled down: as §1

Compound in experiment [3]: Cc1ccc(C(=O)N(CCCN)[C@@H](c2nc3cc(Cl)ccc3c(=O)n2Cc2ccccc2)C(C)C)cc1 [Ispinesib] + COc1cc2c(Oc3ccc(NC(=O)C4(C(=O)Nc5ccc(F)cc5)CC4)cc3F)ccnc2cc1OCCCN1CCOCC1 [Foretinib] (partner 0.25 µM)
The method, boiled down:
as §1

Compound in experiment [4]: Cc1ccc(C(=O)N(CCCN)[C@@H](c2nc3cc(Cl)ccc3c(=O)n2Cc2ccccc2)C(C)C)cc1 [Ispinesib] + COc1cccc2cc(-c3nc([C@H]4CC[C@H](C(=O)O)CC4)n4ncnc(N)c34)[nH]c12 [OSI-027] (partner 0.5 µM)
A digest of the protocol:
as §1

For the cell line H3255, the relative viability in experiment [1] (first compound 0.01 µM) was determined as 0.626; in experiment [1] (first compound 0.03162 µM), 0.65; in experiment [1] (first compound 0.1 µM), 0.612; in experiment [1] (first compound 0.3162 µM), 0.497; in experiment [1] (first compound 1 µM) it was 0.559; in experiment [2] (first compound 0.001 µM), 0.94. In addition, the relative viability in experiment [2] (first compound 0.003162 µM) is 1.06; in experiment [2] (first compound 0.01 µM), 0.89; in experiment [2] (first compound 0.03162 µM), 0.623; in experiment [2] (first compound 0.1 µM), 0.311; in experiment [3] (first compound 0.001 µM), 0.932; in experiment [3] (first compound 0.003162 µM), 0.869. Also, the relative viability in experiment [3] (first compound 0.01 µM) amounted to 0.995; in experiment [3] (first compound 0.03162 µM), 0.508; in experiment [3] (first compound 0.1 µM), 0.158; in experiment [4] (first compound 0.001 µM), 0.577; in experiment [4] (first compound 0.003162 µM) it was 0.574; in experiment [4] (first compound 0.01 µM), 0.588. The figures for the relative viability in experiment [4] (first compound 0.03162 µM) and in experiment [4] (first compound 0.1 µM) were 0.552 and 0.414, respectively.
With NCI-H650, the relative viability in experiment [1] (first compound 0.01 µM) amounted to 0.762; in experiment [1] (first compound 0.03162 µM) it was 0.786; in experiment [1] (first compound 0.1 µM) it was 0.699; in experiment [1] (first compound 0.3162 µM) it was 0.502; in experiment [1] (first compound 1 µM), 0.601; in experiment [2] (first compound 0.001 µM) it was 1.15. For the same cell line, the relative viability in experiment [2] (first compound 0.003162 µM) stood at 1.21; in experiment [2] (first compound 0.01 µM), 1.09; in experiment [2] (first compound 0.03162 µM), 0.634; in experiment [2] (first compound 0.1 µM) it was 0.456; in experiment [3] (first compound 0.001 µM), 1.04; in experiment [3] (first compound 0.003162 µM), 1.04. The relative viability is 1.09 in experiment [3] (first compound 0.01 µM); 0.985 in experiment [3] (first compound 0.03162 µM); 0.896 in experiment [3] (first compound 0.1 µM); 0.571 in experiment [4] (first compound 0.001 µM); 0.624 in experiment [4] (first compound 0.003162 µM); 0.585 in experiment [4] (first compound 0.01 µM). In addition, the results for the relative viability in experiment [4] (first compound 0.03162 µM) and in experiment [4] (first compound 0.1 µM) were 0.381 and 0.23, respectively.
NCI-H460: the relative viability is 0.476 in experiment [1] (first compound 0.01 µM); 0.381 in experiment [1] (first compound 0.03162 µM); 0.508 in experiment [1] (first compound 0.1 µM); 0.328 in experiment [1] (first compound 0.3162 µM); 0.367 in experiment [1] (first compound 1 µM); 0.711 in experiment [2] (first compound 0.001 µM). Further, the relative viability stood at 0.757 in experiment [2] (first compound 0.003162 µM); 1.01 in experiment [2] (first compound 0.01 µM); 0.632 in experiment [2] (first compound 0.03162 µM); 0.0769 in experiment [2] (first compound 0.1 µM); 0.901 in experiment [3] (first compound 0.001 µM); 0.995 in experiment [3] (first compound 0.003162 µM). For the same cell line, the relative viability in experiment [3] (first compound 0.01 µM) was 1.13; in experiment [3] (first compound 0.03162 µM) it was 0.879; in experiment [3] (first compound 0.1 µM) it was 0.0487; in experiment [4] (first compound 0.001 µM), 0.787; in experiment [4] (first compound 0.003162 µM) it was 0.835; in experiment [4] (first compound 0.01 µM) it was 1.03. Further, the relative viability is 0.417 in experiment [4] (first compound 0.03162 µM) and 0.0414 in experiment [4] (first compound 0.1 µM).
In the case of NCI-H2085, the relative viability in experiment [1] (first compound 0.01 µM) was 0.768; in experiment [1] (first compound 0.03162 µM), 0.748; in experiment [1] (first compound 0.1 µM) it was 0.932; in experiment [1] (first compound 0.3162 µM) it was 0.817; in experiment [1] (first compound 1 µM) it was 0.706; in experiment [2] (first compound 0.001 µM), 0.962. For the same cell line, the relative viability in experiment [2] (first compound 0.003162 µM) stood at 1.08; in experiment [2] (first compound 0.01 µM), 1.07; in experiment [2] (first compound 0.03162 µM), 0.806; in experiment [2] (first compound 0.1 µM), 0.466; in experiment [3] (first compound 0.001 µM) it was 0.838; in experiment [3] (first compound 0.003162 µM), 1.06. In addition, the relative viability in experiment [3] (first compound 0.01 µM) was found to be 1.05; in experiment [3] (first compound 0.03162 µM), 0.848; in experiment [3] (first compound 0.1 µM) it was 0.371; in experiment [4] (first compound 0.001 µM) it was 0.815; in experiment [4] (first compound 0.003162 µM), 0.715; in experiment [4] (first compound 0.01 µM) it was 0.824. The relative viability in experiment [4] (first compound 0.03162 µM) was 0.541; in experiment [4] (first compound 0.1 µM) it was 0.264.
As for HCC-366, the relative viability in experiment [1] (first compound 0.01 µM) was 0.108; in experiment [1] (first compound 0.03162 µM) it was 0.147; in experiment [1] (first compound 0.1 µM), 0.187; in experiment [1] (first compound 0.3162 µM) it was 0.0897; in experiment [1] (first compound 1 µM) it was 0.0876; in experiment [2] (first compound 0.001 µM), 0.267. The relative viability is 0.29 in experiment [2] (first compound 0.003162 µM); 0.204 in experiment [2] (first compound 0.01 µM); 0.346 in experiment [2] (first compound 0.03162 µM); 0.0475 in experiment [2] (first compound 0.1 µM); 0.895 in experiment [3] (first compound 0.001 µM); 0.959 in experiment [3] (first compound 0.003162 µM). Also, the relative viability is 0.994 in experiment [3] (first compound 0.01 µM); 0.913 in experiment [3] (first compound 0.03162 µM); 0.0534 in experiment [3] (first compound 0.1 µM); 0.944 in experiment [4] (first compound 0.001 µM); 1.01 in experiment [4] (first compound 0.003162 µM); 1.33 in experiment [4] (first compound 0.01 µM). For the same cell line, the relative viability came out at 0.204 in experiment [4] (first compound 0.03162 µM) and 0.0402 in experiment [4] (first compound 0.1 µM).
Regarding EPLC-272H, the relative viability in experiment [1] (first compound 0.01 µM) came out at 0.358; in experiment [1] (first compound 0.03162 µM) it was 0.249; in experiment [1] (first compound 1 µM), 0.222; in experiment [2] (first compound 0.001 µM), 0.226; in experiment [2] (first compound 0.003162 µM), 0.253; in experiment [2] (first compound 0.01 µM) it was 0.21. Moreover, the relative viability in experiment [2] (first compound 0.03162 µM) is 0.16; in experiment [2] (first compound 0.1 µM), 0.0883; in experiment [3] (first compound 0.001 µM), 0.793; in experiment [3] (first compound 0.003162 µM), 0.657; in experiment [3] (first compound 0.01 µM), 0.659; in experiment [3] (first compound 0.03162 µM) it was 0.322. Further, the relative viability in experiment [3] (first compound 0.1 µM) turned out to be 0.23; in experiment [4] (first compound 0.001 µM), 0.242; in experiment [4] (first compound 0.003162 µM) it was 0.281; in experiment [4] (first compound 0.01 µM), 0.238; in experiment [4] (first compound 0.03162 µM), 0.167; in experiment [4] (first compound 0.1 µM) it was 0.152.
Turning to 201T, the relative viability in experiment [1] (first compound 0.01 µM) is 0.951; in experiment [1] (first compound 0.03162 µM) it was 0.929; in experiment [1] (first compound 0.1 µM) it was 0.988; in experiment [1] (first compound 0.3162 µM), 0.977; in experiment [1] (first compound 1 µM), 0.938; in experiment [2] (first compound 0.001 µM), 0.662. The relative viability in experiment [2] (first compound 0.003162 µM) stood at 0.521; in experiment [2] (first compound 0.01 µM), 0.643; in experiment [2] (first compound 0.03162 µM), 0.65; in experiment [2] (first compound 0.1 µM), 0.309; in experiment [3] (first compound 0.001 µM), 1.26; in experiment [3] (first compound 0.003162 µM), 1.24. The relative viability in experiment [3] (first compound 0.01 µM) was 1.08; in experiment [3] (first compound 0.03162 µM), 0.962; in experiment [3] (first compound 0.1 µM), 0.214; in experiment [4] (first compound 0.001 µM), 0.828; in experiment [4] (first compound 0.003162 µM), 0.952; in experiment [4] (first compound 0.01 µM), 0.834. For the same cell line, the figures for the relative viability in experiment [4] (first compound 0.03162 µM) and in experiment [4] (first compound 0.1 µM) were 0.56 and 0.181, respectively.
